The text below walks through data of patent publication US20240067662A1, “KRAS INHIBITORS” (Bristol-Myers Squibb Company, priority 2022, published 2024).

For the assay, the target named is GMPPNP-loaded KRAS G12C (Homo sapiens, UniProt P01116, G12C). As to the kind of experiment: KRAS G12C RAF Disruption Assay (HTRF). In kind it is biochemical. The note with it: recombinant GMPPNP-loaded KRAS G12C (5 nM), 20 min with compound; GST-RAF1 RBD (9 nM); HTRF signal; read-out: KRASG12C RAF Disruption Assay (IC50). In outline:
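The read-out is an HTRF 520/495 emission ratio, with IC50 taken from dose-response curves. Compound was first incubated for 20 min at room temperature with active-state KRAS G12C (GMPPNP, 5 nM) in Tris pH 7.5/NaCl/MgCl2/DTT/BSA. RAF1 RBD-GST (9 nM, 20 min) and SA-Tb (0.25 nM, 3 h) were added in turn.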
For orientation: Time-resolved FRET reads energy transfer from a long-lived donor to a nearby acceptor.

Chain of GMPPNP-loaded KRAS G12C (P01116 1-188 isoform P01116-2 G12C): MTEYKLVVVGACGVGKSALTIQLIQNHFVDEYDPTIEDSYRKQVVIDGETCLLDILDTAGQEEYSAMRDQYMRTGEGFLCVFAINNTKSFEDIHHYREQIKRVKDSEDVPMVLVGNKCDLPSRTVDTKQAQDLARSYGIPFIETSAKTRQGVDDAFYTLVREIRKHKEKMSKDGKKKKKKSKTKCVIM

With `C#Cc1cccc2cccc(-c3ncc4c(N5CCN(C(=O)/C(F)=C/c6ccccn6)CC5)nc(OC[C@@H]5CCCN5C)nc4c3F)c12` [Example 25, (S,Z)-1-(4-(7-(8-ethynylnaphthalen-1-yl)-8-fluoro-2-((1-methylpyrrolidin-2-yl)methoxy)pyrido[4,3-d]pyrimidin-4-yl)piperazin-1-yl)-2-fluoro-3-(pyridin-2-yl)prop-2-en-1-one], the IC50 – broadly, the concentration that gives 50% inhibition – came out at 290 nM. Consider `C#Cc1c(F)ccc2cccc(-c3ncc4c(N5CCN(C(=O)/C(F)=C/c6ccccn6)CC5)nc(OC[C@@]56CCCN5C[C@H](F)C6)nc4c3F)c12` [Example 31, (Z)-1-(4-(7-(8-ethynyl-7-fluoronaphthalen-1-yl)-8-fluoro-2-(((2R, 7aS)-2-fluorotetrahydro-1H-pyrrolizin-7a(5H)-yl)methoxy)pyrido[4,3-d]pyrimidin-4-yl)piperazin-1-yl)-2-fluoro-3-(pyridin-2-yl)prop-2-en-1-one], for which the IC50 was found to be 64 nM. Under `N#CC[C@H]1CN(c2nc(OC[C@@]34CCCN3C[C@H](F)C4)nc3c(F)c(N4CCOc5cccc(F)c54)ncc23)CCN1C(=O)/C(F)=C/c1nccs1` [Example 61, 2-((S)-1-((Z)-2-fluoro-3-(thiazol-2-yl)acryloyl)-4-(8-fluoro-7-(5-fluoro-2,3-dihydro-4H-benzo[b][1,4]oxazin-4-yl)-2-(((2R, 7aS)-2-fluorotetrahydro-1H-pyrrolizin-7a(5H)-yl)methoxy)pyrido[4,3-d]pyrimidin-4-yl)piperazin-2-yl)acetonitrile] stands 300 nM; under `N#CC[C@H]1CN(c2nc(OC[C@@]34CCCN3C[C@H](F)C4)nc3c(F)c(-c4ccccc4C4CCC4)ncc23)CCN1C(=O)/C(F)=C/c1nccs1` [Compound 82, 2-((2S)-4-(7-(2-cyclobutylphenyl)-8-fluoro-2-(((2R, 7aS)-2-fluorotetrahydro-1H-pyrrolizin-7a(5H)-yl)methoxy)pyrido[4,3-d]pyrimidin-4-yl)-1-((Z)-2-fluoro-3-(thiazol-2-yl)acryloyl)piperazin-2-yl)acetonitrile], 62 nM; under `C#Cc1cccc2cccc(-c3ncc4c(N(C)[C@H]5CN(C(=O)/C(F)=C/c6ccccn6)C[C@H]5F)nc(OC[C@@]56CCCN5C[C@H](F)C6)nc4c3F)c12` [Compound 128, (Z)-1-((3S,4R)-3-((7-(8-ethynylnaphthalen-1-yl)-8-fluoro-2-(((2R, 7aS)-2-fluorotetrahydro-1H-pyrrolizin-7a(5H)-yl)methoxy)pyrido[4,3-d]pyrimidin-4-yl)(methyl)amino)-4-fluoropyrrolidin-1-yl)-2-fluoro-3-(pyridin-2-yl)prop-2-en-1-one], 30 nM. Turning to `C#Cc1c(F)ccc2cc(O)cc(-c3ncc4c(N5C[C@H]6CC[C@@H](C5)N6C(=O)/C(F)=C/c5cccnn5)nc(OC[C@@]56CCCN5C[C@H](F)C6)nc4c3F)c12` [Compound 12, (Z)-1-((1R, 5S)-3-(7-(8-ethynyl-7-fluoro-3-hydroxynaphthalen-1-yl)-8-fluoro-2-(((2R, 7aS)-2-fluorotetrahydro-1H-pyrrolizin-7a(5H)-yl)methoxy)pyrido[4,3-d]pyrimidin-4-yl)-3,8-diazabicyclo[3.2.1]octan-8-yl)-2-fluoro-3-(pyridazin-3-yl)prop-2-en-1-one], the IC50 was determined as 11 nM. Turning to `C#Cc1c(F)ccc2cc(O)cc(-c3ncc4c(N5CCN(C(=O)/C(F)=C/c6cnccn6)CC5)nc(OC[C@@]56CCCN5C[C@H](F)C6)nc4c3F)c12` [Example 56, (Z)-1-(4-(7-(8-ethynyl-7-fluoro-3-hydroxynaphthalen-1-yl)-8-fluoro-2-(((2R, 7aS)-2-fluorotetrahydro-1H-pyrrolizin-7a(5H)-yl)methoxy)pyrido[4,3-d]pyrimidin-4-yl)piperazin-1-yl)-2-fluoro-3-(pyrazin-2-yl)prop-2-en-1-one], the IC50 came out at 6 nM. `CCc1cccc2cccc(-c3ncc4c(N5CCN(C(=O)/C(F)=C/c6nccs6)[C@@H](CC#N)C5)nc(OC[C@@H]5CCCN5C)nc4c3F)c12` [Example 24, 2-((S)-4-(7-(8-ethylnaphthalen-1-yl)-8-fluoro-2-(((S)-1-methylpyrrolidin-2-yl)methoxy)pyrido[4,3-d]pyrimidin-4-yl)-1-((Z)-2-fluoro-3-(thiazol-2-yl)acryloyl)piperazin-2-yl)acetonitrile]: the IC50 came out at 110 nM. Regarding `C#Cc1c(F)ccc2cccc(-c3ncc4c(N5CCN(C(=O)/C(F)=C/c6ncccn6)C[C@@H]5C)nc(OC[C@@]56CCCN5C[C@H](F)C6)nc4c3F)c12` [Compound 90, (Z)-1-((S)-4-(7-(8-ethynyl-7-fluoronaphthalen-1-yl)-8-fluoro-2-(((2R, 7aS)-2-fluorotetrahydro-1H-pyrrolizin-7a(5H)-yl)methoxy)pyrido[4,3-d]pyrimidin-4-yl)-3-methylpiperazin-1-yl)-2-fluoro-3-(pyrimidin-2-yl)prop-2-en-1-one], the IC50 amounted to 110 nM. Regarding `C#Cc1cccc2cccc(-c3ncc4c(N5CCN(C(=O)/C(F)=C/c6nccs6)CC5)nc(OC[C@@]56CCCN5C[C@H](F)C6)nc4c3F)c12` [Example 47, (Z)-1-(4-(7-(8-ethynylnaphthalen-1-yl)-8-fluoro-2-(((2R, 7aS)-2-fluorotetrahydro-1H-pyrrolizin-7a(5H)-yl)methoxy)pyrido[4,3-d]pyrimidin-4-yl)piperazin-1-yl)-2-fluoro-3-(thiazol-2-yl)prop-2-en-1-one], the IC50 came out at 100 nM. Under `C#Cc1cccc2cccc(-c3ncc4c(N5CCN(C(=O)/C(F)=C/c6ccccn6)C[C@@H]5C)nc(OC[C@@]56CCCN5C[C@H](F)C6)nc4c3F)c12` [Example 63, (Z)-1-((S)-4-(7-(8-ethynylnaphthalen-1-yl)-8-fluoro-2-(((2R, 7aS)-2-fluorotetrahydro-1H-pyrrolizin-7a(5H)-yl)methoxy)pyrido[4,3-d]pyrimidin-4-yl)-3-methylpiperazin-1-yl)-2-fluoro-3-(pyridin-2-yl)prop-2-en-1-one] stands 180 nM; under `C#Cc1c(F)ccc2cc(O)cc(-c3ncc4c(N5C[C@H]6CC[C@@H](C5)N6C(=O)/C(F)=C/c5ncccn5)nc(OC[C@@]56CCCN5C[C@H](F)C6)nc4c3F)c12` [Compound 7, (Z)-1-((1R, 5S)-3-(7-(8-ethynyl-7-fluoro-3-hydroxynaphthalen-1-yl)-8-fluoro-2-(((2R, 7aS)-2-fluorotetrahydro-1H-pyrrolizin-7a(5H)-yl)methoxy)pyrido[4,3-d]pyrimidin-4-yl)-3,8-diazabicyclo[3.2.1]octan-8-yl)-2-fluoro-3-(pyrimidin-yl)prop-2-en-1-one], 16 nM; under `C#Cc1c(F)c(F)cc2cccc(-c3ncc4c(N5CCN(C(=O)/C(F)=C/c6ccccn6)CC5)nc(OC[C@@]56CCCN5C[C@H](F)C6)nc4c3F)c12` [Compound 99, (Z)-1-(4-(7-(8-ethynyl-6,7-difluoronaphthalen-1-yl)-8-fluoro-2-(((2R, 7aS)-2-fluorotetrahydro-IH-pyrrolizin-7a(5H)-yl)methoxy)pyrido[4,3-d]pyrimidin-4-yl)piperazin-1-yl)-2-fluoro-3-(pyridin-2-yl)prop-2-en-1-one], 70 nM. As for `C#Cc1c(F)ccc2cc(O)cc(-c3ncc4c(N5C[C@H]6CC[C@@H](C5)N6C(=O)/C(F)=C/c5ccccn5)nc(OC[C@@]56CCCN5C[C@H](F)C6)nc4c3F)c12` [Compound 2, (Z)-1-((1R, 5S)-3-(7-(8-ethynyl-7-fluoro-3-hydroxynaphthalen-1-yl)-8-fluoro-2-(((2R, 7aS)-2-fluorotetrahydro-1H-pyrrolizin-7a(5H)-yl)methoxy)pyrido[4,3-d]pyrimidin-4-yl)-3,8-diazabicyclo[3.2.1]octan-8-yl)-2-fluoro-3-(pyridin-2-yl)prop-2-en-1-one], the IC50 is 32 nM. Consider `C#Cc1cccc2cccc(-c3ncc4c(N5CCN(C(=O)/C(F)=C/c6nccs6)C[C@H]5C)nc(OC[C@@]56CCCN5C[C@H](F)C6)nc4c3F)c12` [Example 76, (Z)-1-((3R)-4-(7-(8-ethynylnaphthalen-1-yl)-8-fluoro-2-(((2R, 7aS)-2-fluorotetrahydro-1H-pyrrolizin-7a(5H)-yl)methoxy)pyrido[4,3-d]pyrimidin-4-yl)-3-methylpiperazin-1-yl)-2-fluoro-3-(thiazol-2-yl)prop-2-en-1-one], for which the IC50 amounted to 590 nM.

For the molecule `Nc1nc2c(-c3ncc4c(N5CCN(C(=O)/C(F)=C/c6nccs6)CC5)nc(OC[C@@]56CCCN5C[C@H](F)C6)nc4c3F)c(F)cc(F)c2s1` [Example 67, (Z)-1-(4-(7-(2-amino-5,7-difluorobenzo[d]thiazol-4-yl)-8-fluoro-2-(((2R, 7aS)-2-fluorotetrahydro-1H-pyrrolizin-7a(5H)-yl)methoxy)pyrido[4,3-d]pyrimidin-4-yl)piperazin-1-yl)-2-fluoro-3-(thiazol-2-yl)prop-2-en-1-one], the IC50 was found to be 41 nM. For `C#Cc1c(F)ccc2cc(O)cc(-c3ncc4c(N5CCN(C(=O)/C(F)=C/c6ncco6)CC5)nc(OC[C@@]56CCCN5C[C@H](F)C6)nc4c3F)c12` [Example 54, (Z)-1-(4-(7-(8-ethynyl-7-fluoro-3-hydroxynaphthalen-1-yl)-8-fluoro-2-(((2R, 7aS)-2-fluorotetrahydro-1H-pyrrolizin-7a(5H)-yl)methoxy)pyrido[4,3-d]pyrimidin-4-yl)piperazin-1-yl)-2-fluoro-3-(oxazol-2-yl)prop-2-en-1-one], the IC50 was determined as 5 nM.

Consider `C#Cc1c(F)ccc2cc(O)cc(-c3ncc4c(N5CCN(C(=O)/C(F)=C/c6ccccn6)CC5)nc(OC[C@@H]5CCCN5CCCN=[N+]=[N-])nc4c3F)c12` [Compound 111, (S,Z)-1-(4-(2-((1-(3-azidopropyl)pyrrolidin-2-yl)methoxy)-7-(8-ethynyl-7-fluoro-3-hydroxynaphthalen-1-yl)-8-fluoropyrido[4,3-d]pyrimidin-4-yl)piperazin-1-yl)-2-fluoro-3-(pyridin-2-yl)prop-2-en-1-one], for which the IC50 came out at 11 nM.
